The values below come from ChEMBL document CHEMBL3351799, “Bioavailable pyrrolo-benzo-1,4-diazines as Na(v)1.7 sodium channel blockers for the treatment of pain” (Bioorg Med Chem Lett, 2014).

As a reminder, the Kp is the ratio of the level in a tissue or fluid to that in plasma or blood. For orientation: AUC means concentration integrated over time.

Series [1] can be described thus: in vivo. As to conditions: Sprague-Dawley, rat, brain/plasma.
The nature of series [2]: Drug level in Sprague-Dawley rat brain after 6 hrs. The format is ADME, tissue-based. The conditions noted are these: read-out: Drug uptake.
Series [3] in a line: in vivo. The conditions noted are these: Sprague-Dawley, rat, plasma.

On to `COc1ccc2c(c1)NC1(CCN(C(=O)c3ccc(OC)c(N(C)C)c3)CC1)c1cccn1-2`, for which the Kp at 6 h in “in vivo [1]” stood at 0.2. The concentration at 6 h in series [2] came to 257 ng/g. This compound yielded an AUC at 6 h in the series “in vivo [3]” of 20.3 µM·h.

In the series “in vivo [3]”, `COc1ccc2c(c1)NC1(CCN(C(=O)c3cccc4ncccc34)CC1)c1cccn1-2` had an AUC at 6 h of 16.2 µM·h.
